Measured values taken from ChEMBL document CHEMBL1130677, “Growth inhibitory effect of juvenile hormone analogues on epimastigotes of Trypanosoma cruzi” (Bioorg Med Chem Lett, 1998).
Values after ≈ are worked out from the molar mass of the structure shown.

test system: Trypanosoma cruzi; experiment: Growth inhibitory activity against Trypanosoma cruzi (Epimastigote); format: functional, organism-based

Row | IC50 [mg/L] | Structure (SMILES)
1 | 194 (≈ 578 µM) | CC(C)OC(=O)NCCOc1ccc(C[C@@H]2CCCC[C@H]2O)cc1
2 | 45.7 (≈ 136 µM) | CCCOC(=O)NCCOc1ccc(C[C@@H]2CCCC[C@@H]2O)cc1
3 | 62.3 (≈ 194 µM) | CCOC(=O)NCCOc1ccc(C[C@@H]2CCCC[C@H]2O)cc1
4 | 37.3 (≈ 111 µM) | CCCOC(=O)NCCOc1ccc(C[C@@H]2CCCC[C@H]2O)cc1
5 | > 100 | C#CCOC(=O)NCCOc1ccc(C[C@@H]2CCCC[C@H]2O)cc1
6 | > 200 | COC(=O)NCCOc1ccc(C[C@@H]2CCCC[C@H]2O)cc1
7 | 145 (≈ 384 µM) | CC(C)OC(=O)NCCOc1ccc(C[C@@H]2CCCCC23OCCO3)cc1
8 | > 200 | CCCOC(=O)NCCOc1ccc(C[C@@H]2CCCCC23OCCO3)cc1

Row | Structure (SMILES) | IC50 [mg/L]
9 | CC(=O)N1CCN(c2ccc(OC[C@H]3CO[C@](Cn4ccnc4)(c4ccc(Cl)cc4Cl)O3)cc2)CC1 [KETOCONAZOLE] | 1.7 (≈ 3.2 µM)
